Data: ChEMBL document CHEMBL6074676, “Optimization and Biological Evaluation of Novel 1H-Pyrrolo[2,3-c]pyridin Derivatives as Potent and Reversible Lysine Specific Demethylase 1 Inhibitors for the Treatment of Acute Myelogenous Leukemia” (J Med Chem, 2024)

Experiments:
Cytochrome P450 2D6 = Cytochrome P450 2D6 (Homo sapiens, UniProt P10635); assay: Inhibition of CYP2D6 in human liver microsomes; type: ADME, Microsome
Cytochrome P450 3A4 = Cytochrome P450 3A4 (Homo sapiens, UniProt P08684); assay: Inhibition of CYP3A4 in human liver microsomes; type: ADME, Microsome
[1] = target: T1, Amine oxidase [flavin-containing] A (Homo sapiens, UniProt P21397); assay: biochemical
T1 sequence (P21397 whole entry): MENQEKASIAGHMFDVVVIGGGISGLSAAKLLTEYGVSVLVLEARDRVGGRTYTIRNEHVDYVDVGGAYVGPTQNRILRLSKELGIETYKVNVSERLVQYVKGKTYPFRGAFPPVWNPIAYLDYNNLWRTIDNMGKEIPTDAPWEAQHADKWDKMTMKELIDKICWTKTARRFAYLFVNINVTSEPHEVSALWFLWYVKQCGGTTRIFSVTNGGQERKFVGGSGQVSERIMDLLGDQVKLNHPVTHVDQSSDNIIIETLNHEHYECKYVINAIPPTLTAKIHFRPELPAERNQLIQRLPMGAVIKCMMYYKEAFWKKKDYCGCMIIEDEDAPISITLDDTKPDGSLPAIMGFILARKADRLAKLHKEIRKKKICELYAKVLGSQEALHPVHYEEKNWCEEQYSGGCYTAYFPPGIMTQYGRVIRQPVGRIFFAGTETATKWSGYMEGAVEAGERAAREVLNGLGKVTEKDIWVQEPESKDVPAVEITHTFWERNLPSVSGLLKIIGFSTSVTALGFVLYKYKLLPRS
Description: Inhibition of human recombinant MAO-A expressed in baculovirus infected BTI cells by luminescence assay

Cytochrome P450 2C9 = Cytochrome P450 2C9 (Homo sapiens, UniProt P11712); assay: Inhibition of CYP2C9 in human liver microsomes; type: ADME, Microsome
[2] = target: T2, Lysine-specific histone demethylase 2 (Homo sapiens, UniProt Q8NB78); assay: Inhibition of N-terminal GST-tagged recombinant full length human LSD2 expressed in Baculovirus using Bio- H3K4me2 (1 to 24 residues) as substrate incubated for 1 hr by TR-FRET assay
T2 sequence (Q8NB78 whole entry): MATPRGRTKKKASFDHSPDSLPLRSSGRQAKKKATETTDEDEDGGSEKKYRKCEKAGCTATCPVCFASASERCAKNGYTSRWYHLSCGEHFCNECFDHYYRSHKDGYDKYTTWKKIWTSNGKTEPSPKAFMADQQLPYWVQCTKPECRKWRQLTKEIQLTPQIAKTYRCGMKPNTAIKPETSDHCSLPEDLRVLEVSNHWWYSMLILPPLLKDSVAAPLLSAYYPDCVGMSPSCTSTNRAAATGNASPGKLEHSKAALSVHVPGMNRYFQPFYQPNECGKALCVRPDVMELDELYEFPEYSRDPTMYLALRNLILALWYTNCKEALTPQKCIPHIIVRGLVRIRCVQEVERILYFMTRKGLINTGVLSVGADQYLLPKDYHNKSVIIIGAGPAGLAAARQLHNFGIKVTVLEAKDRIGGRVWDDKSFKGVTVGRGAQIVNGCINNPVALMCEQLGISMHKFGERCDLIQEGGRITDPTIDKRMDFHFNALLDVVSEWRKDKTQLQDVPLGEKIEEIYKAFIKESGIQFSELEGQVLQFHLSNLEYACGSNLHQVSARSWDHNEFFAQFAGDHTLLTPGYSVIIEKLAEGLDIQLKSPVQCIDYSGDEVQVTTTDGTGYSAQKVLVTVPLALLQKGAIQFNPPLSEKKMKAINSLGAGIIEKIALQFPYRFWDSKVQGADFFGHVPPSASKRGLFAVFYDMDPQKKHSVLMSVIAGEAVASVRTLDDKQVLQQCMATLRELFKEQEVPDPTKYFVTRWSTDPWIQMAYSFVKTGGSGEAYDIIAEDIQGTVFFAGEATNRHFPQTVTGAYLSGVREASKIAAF

[3] = target: T3, Amine oxidase [flavin-containing] B (Homo sapiens, UniProt P27338); assay: biochemical
T3 sequence (P27338 whole entry): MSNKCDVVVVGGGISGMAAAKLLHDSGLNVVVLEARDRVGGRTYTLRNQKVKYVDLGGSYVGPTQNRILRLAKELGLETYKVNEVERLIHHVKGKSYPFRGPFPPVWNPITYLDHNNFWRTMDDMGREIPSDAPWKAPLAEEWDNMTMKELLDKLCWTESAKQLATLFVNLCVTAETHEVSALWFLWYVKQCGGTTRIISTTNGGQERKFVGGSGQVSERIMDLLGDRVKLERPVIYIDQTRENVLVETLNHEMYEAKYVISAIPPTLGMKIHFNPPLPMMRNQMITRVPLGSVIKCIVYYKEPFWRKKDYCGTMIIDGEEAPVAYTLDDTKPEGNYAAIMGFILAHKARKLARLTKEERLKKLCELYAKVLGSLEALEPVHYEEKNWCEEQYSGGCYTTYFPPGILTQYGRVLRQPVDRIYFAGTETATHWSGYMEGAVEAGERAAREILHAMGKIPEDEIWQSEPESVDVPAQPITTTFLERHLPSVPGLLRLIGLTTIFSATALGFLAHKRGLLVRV
Description: Inhibition of human recombinant MAO-B expressed in baculovirus infected BTI cells by luminescence assay

Cytochrome P450 1A2 = target: T4, Cytochrome P450 1A2 (Homo sapiens, UniProt P05177); assay: Inhibition of CYP1A2 in human liver microsomes; type: ADME, Microsome
T4 sequence (P05177 whole entry): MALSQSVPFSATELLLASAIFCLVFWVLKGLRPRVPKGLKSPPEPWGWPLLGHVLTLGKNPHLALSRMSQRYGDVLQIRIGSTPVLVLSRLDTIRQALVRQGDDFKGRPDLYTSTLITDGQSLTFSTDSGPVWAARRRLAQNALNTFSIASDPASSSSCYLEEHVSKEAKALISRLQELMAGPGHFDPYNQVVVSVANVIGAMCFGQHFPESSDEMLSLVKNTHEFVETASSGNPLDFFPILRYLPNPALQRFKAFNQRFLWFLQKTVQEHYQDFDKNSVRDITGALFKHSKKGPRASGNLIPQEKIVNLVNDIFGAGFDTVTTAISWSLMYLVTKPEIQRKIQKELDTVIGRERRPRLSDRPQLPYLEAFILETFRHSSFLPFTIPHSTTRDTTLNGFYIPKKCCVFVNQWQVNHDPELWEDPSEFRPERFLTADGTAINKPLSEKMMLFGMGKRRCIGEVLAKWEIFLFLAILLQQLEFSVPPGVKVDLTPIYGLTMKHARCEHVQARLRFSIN

MV4-11 [4] = assay: Antitumor activity against human MV4-11 cells xenografted in Nu/Nu female mouse model assessed as reduction in tumor volume at 20 mg/kg, po qd measured immediately (reference value: 131+/-53 mm3); type: functional
[5] = Upregulation of CD86 mRNA expression level in human MV4-11 cells measured after 24 hrs by RT-qPCR analysis; type: functional, cell-based; conditions: MV4-11, 24 h
MV4-11 [6] = assay: Antitumor activity against human MV4-11 cells xenografted in Nu/Nu female mouse model assessed as relative tumor growth rate at 20 mg/kg, po qd and measured on day 17 relative to control; type: functional; conditions: time 17 day
MV4-11 [7] = assay: Antitumor activity against human MV4-11 cells xenografted in Nu/Nu female mouse model assessed as relative tumor volume at 20 mg/kg, po qd and measured on day 17 (reference value: 9.52+/-4.19); type: functional; conditions: time 17 day
MV4-11 [8] = assay: Antitumor activity against human MV4-11 cells xenografted in Nu/Nu female mouse model assessed as reduction in tumor volume at 20 mg/kg, po qd and measured on day 17 (reference value: 1187+/-508 mm3); type: functional; conditions: time 17 day
NCI-H526 = assay: Antiproliferative activity against human NCI-H526 cells assessed as inhibition of cell growth incubated for 240 hrs by MTS assay; type: functional, cell-based; conditions: NCI-H526, 240 h
MV4-11 [9] = assay: Antitumor activity against human MV4-11 cells xenografted in Nu/Nu female mouse model assessed as tumor growth inhibition at 20 mg/kg, po qd and measured on day 17 relative to control; type: functional; conditions: MV4-11, 408 h, time 17 day, read-out: TGI
Kasumi 1 = assay: Antiproliferative activity against human Kasumi 1 cells assessed as inhibition of cell growth incubated for 240 hrs by MTS assay; type: functional, cell-based; conditions: Kasumi 1, 240 h
Cytochrome P450 2C19 = Cytochrome P450 2C19 (Homo sapiens, UniProt P33261); assay: Inhibition of CYP2C19 in human liver microsomes; type: ADME, Microsome
MV4-11 [10] = assay: Antitumor activity against human MV4-11 cells xenografted in Nu/Nu female mouse model assessed as tumor growth inhibition at 20 mg/kg, sc administered 5 days per week and measured on day 17 relative to control; type: functional; conditions: MV4-11, 408 h, time 17 day, read-out: TGI
MV4-11 [11] = assay: Antitumor activity against human MV4-11 cells xenografted in Nu/Nu female mouse model assessed as reduction in tumor volume at 20 mg/kg, sc measured immediately (reference value: 131+/-53 mm3); type: functional
MV4-11 [12] = assay: Antitumor activity against human MV4-11 cells xenografted in Nu/Nu female mouse model assessed as relative tumor growth rate at 20 mg/kg, sc administered 5 days per week and measured on day 17 relative to control; type: functional; conditions: time 17 day
MV4-11 [13] = assay: Antitumor activity against human MV4-11 cells xenografted in Nu/Nu female mouse model assessed as reduction in tumor volume at 20 mg/kg, sc administered 5 days per week and measured on day 17 (reference value: 1187+/-508 mm3); type: functional; conditions: time 17 day
MV4-11 [14] = assay: Antitumor activity against human MV4-11 cells xenografted in Nu/Nu female mouse model assessed as relative tumor volume at 20 mg/kg, sc administered 5 days per week and measured on day 17 (reference value: 9.52+/-4.19); type: functional; conditions: time 17 day

Sequence of Cytochrome P450 2C19 (P33261 whole entry): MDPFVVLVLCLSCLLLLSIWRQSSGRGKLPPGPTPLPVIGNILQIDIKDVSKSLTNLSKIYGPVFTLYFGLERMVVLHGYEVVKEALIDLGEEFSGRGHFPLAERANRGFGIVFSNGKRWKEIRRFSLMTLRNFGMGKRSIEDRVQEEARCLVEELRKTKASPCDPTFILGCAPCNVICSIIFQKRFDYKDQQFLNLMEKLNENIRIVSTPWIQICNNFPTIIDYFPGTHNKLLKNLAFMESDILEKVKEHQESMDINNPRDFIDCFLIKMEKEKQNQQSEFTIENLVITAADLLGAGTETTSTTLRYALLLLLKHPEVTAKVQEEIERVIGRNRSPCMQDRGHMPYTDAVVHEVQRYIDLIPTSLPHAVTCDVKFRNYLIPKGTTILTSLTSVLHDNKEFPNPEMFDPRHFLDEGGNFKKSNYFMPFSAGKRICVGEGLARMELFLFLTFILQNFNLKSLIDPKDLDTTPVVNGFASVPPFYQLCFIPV
Sequence of Cytochrome P450 2C9 (P11712 whole entry, the tested form may be a part): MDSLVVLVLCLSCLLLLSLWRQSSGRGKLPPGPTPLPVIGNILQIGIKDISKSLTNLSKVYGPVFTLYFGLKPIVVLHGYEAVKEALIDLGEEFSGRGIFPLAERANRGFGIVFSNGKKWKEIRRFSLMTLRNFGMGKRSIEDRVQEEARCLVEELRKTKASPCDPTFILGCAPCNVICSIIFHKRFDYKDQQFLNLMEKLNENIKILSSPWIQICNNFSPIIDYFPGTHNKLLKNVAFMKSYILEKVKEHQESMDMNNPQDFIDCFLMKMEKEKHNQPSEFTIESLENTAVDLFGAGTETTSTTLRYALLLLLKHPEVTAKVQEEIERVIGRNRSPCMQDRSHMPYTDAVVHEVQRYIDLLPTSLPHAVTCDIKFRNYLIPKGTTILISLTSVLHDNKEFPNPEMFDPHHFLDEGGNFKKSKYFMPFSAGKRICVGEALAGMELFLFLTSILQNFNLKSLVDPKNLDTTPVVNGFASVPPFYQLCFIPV
Sequence of Cytochrome P450 3A4 (P08684 whole entry): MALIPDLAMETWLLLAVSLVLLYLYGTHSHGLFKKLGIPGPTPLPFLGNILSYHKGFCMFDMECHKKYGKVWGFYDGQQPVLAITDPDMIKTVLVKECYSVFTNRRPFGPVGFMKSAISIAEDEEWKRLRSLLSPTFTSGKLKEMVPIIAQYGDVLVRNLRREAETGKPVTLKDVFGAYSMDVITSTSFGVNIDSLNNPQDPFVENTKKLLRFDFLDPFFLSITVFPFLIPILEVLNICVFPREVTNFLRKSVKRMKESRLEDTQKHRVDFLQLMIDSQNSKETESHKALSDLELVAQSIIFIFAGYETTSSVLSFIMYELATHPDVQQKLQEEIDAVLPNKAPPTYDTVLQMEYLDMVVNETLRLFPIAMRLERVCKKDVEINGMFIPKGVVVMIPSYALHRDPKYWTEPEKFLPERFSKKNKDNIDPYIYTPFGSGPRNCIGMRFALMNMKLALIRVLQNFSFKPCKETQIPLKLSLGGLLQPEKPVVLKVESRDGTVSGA
Sequence of Cytochrome P450 2D6 (P10635 whole entry): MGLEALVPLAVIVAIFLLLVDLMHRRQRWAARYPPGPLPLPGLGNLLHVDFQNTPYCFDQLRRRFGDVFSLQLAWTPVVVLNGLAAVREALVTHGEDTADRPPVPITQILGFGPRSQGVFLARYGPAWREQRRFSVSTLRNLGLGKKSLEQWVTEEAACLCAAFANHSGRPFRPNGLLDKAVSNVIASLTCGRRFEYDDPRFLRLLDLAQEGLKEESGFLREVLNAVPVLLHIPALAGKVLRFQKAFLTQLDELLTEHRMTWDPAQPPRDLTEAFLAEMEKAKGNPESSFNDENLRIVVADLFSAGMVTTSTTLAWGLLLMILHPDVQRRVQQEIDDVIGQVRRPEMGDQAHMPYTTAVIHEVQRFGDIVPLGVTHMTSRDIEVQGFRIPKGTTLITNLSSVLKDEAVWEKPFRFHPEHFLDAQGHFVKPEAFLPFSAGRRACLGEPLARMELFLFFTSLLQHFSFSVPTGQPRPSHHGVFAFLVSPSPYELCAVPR

SMILES | IC50 (Cytochrome P450 2D6) [µM] | IC50 [1] [µM] | IC50 (Cytochrome P450 2C9) [µM] | IC50 [2] [µM] | IC50 [3] [µM] | IC50 (Cytochrome P450 1A2) [µM] | IC50 (Cytochrome P450 3A4; read-out: IC50) [µM] | IC50 (Cytochrome P450 2C19) [µM] | other results
Cc1cc(C)c(-c2ncc3c(cc(CN4CC[C@H](N)C4)n3C(C)C)c2-c2ccc(C#N)c(F)c2)cc1C | 46.7 | > 20 | 32.9 | > 20 | > 20 | > 50 | – | – | IC50 (Cytochrome P450 3A4): 4.53 µM
CCn1c(CN2CC[C@H](N)C2)cc2c(-c3ccc(C#N)c(F)c3)c(-c3cc(C)c(C)c(C)c3)ncc21 | – | > 20 | – | > 20 | > 20 | – | – | – | –
COc1ccc(-c2c(-c3ccc(C#N)c(F)c3)nc(N3CCC(N)CC3)n(C)c2=O)cc1F [PULRODEMSTAT] | – | – | – | – | – | – | – | – | Activity (MV4-11 [4]): 132 mm3; EC50 [5]: 0.032 µM; Activity (MV4-11 [6]): 39.33%; Activity (MV4-11 [7]): 3.75; Activity (MV4-11 [8]): 554 mm3; IC50 (NCI-H526): 0.01 µM; inhibition in vivo at 20 mg/kg (MV4-11 [9]): 64.2%; IC50 (Kasumi 1): 0.003 µM
Cc1cc(-c2ncc3c(cc(CN4CC[C@H](N)C4)n3C(C)C)c2-c2ccc(C#N)c(F)c2)cc(C)c1C | > 50 | > 20 | 30 | > 20 | > 20 | > 50 | 4.96 | 17.9 | –
Cc1ccc(-c2ncc3c(cc(CN4CC[C@H](N)C4)n3CC(F)F)c2-c2ccc(C#N)c(F)c2)cc1C | 45.7 | > 20 | 45.5 | > 20 | > 20 | > 50 | 20.9 | 25.8 | –
Cc1cc(C)c(-c2ncc3c(cc(CN4CC[C@H](N)C4)n3CC(F)F)c2-c2ccc(C#N)c(F)c2)cc1C | – | > 20 | – | > 20 | > 20 | – | – | – | –
Cc1ccc(-c2ncc3c(cc(CN4CC[C@H](N)C4)n3C(C)C)c2-c2ccc(C#N)c(F)c2)cc1C | 43.1 | > 20 | 28.8 | > 20 | > 20 | > 50 | 9.46 | 24.8 | –
Cc1cc(C)c(-c2ncc3c(cc(CN4CC[C@H](N)C4)n3C)c2-c2ccc(C#N)c(F)c2)cc1C | – | > 20 | – | > 20 | > 20 | – | – | – | –
Nc1ccn([C@@H]2O[C@H](CO)[C@@H](O)[C@@H]2O)c(=O)n1 [CYTARABINE] | – | – | – | – | – | – | – | – | inhibition in vivo at 20 mg/kg (MV4-11 [10]): 54.7%; Activity (MV4-11 [11]): 131 mm3; Activity (MV4-11 [12]): 59.36%; Activity (MV4-11 [13]): 741 mm3; Activity (MV4-11 [14]): 5.65
Cc1cc(C)c(-c2ncc3c(cc(CN4CC[C@H](N)C4)n3CC(F)(F)F)c2-c2ccc(C#N)c(F)c2)cc1C | 20.4 | > 20 | 27.3 | > 20 | > 20 | > 50 | 7.74 | 22 | –
